For one experiment, the system named is CsgD. The settings on record: S. Typhimurium, first 24 h of biofilm formation; cited from earlier work.
In another experiment the test system is P. aeruginosa PAO1. Conditions: cited from earlier work.
The subject of a further experiment is S. liquefaciens MG44. Put plainly: Monospecies bacterial biofilm inhibition, static peg assay. It is filed as cell-based, Serratia liquefaciens. The settings on record: S. liquefaciens MG44, 25°C. The procedure: (§1) A static peg assay, described previously ([27], [74]), was used for bacterial biofilm formation. The Calgary biofilm device consists of a platform carrying 96 polystyrene pegs (Nunc no. 445497) that fits as a microtiter plate lid, with 1 peg hanging into each microtiter plate well (Nunc no. 269789). Twofold serial dilutions of the compounds (dissolved in 100% dimethyl sulfoxide [DMSO] or ethanol) in 100 μl liquid broth (TSB diluted 1/20) per well were prepared in the microtiter plate in duplicate or triplicate with a maximum concentration of 1,600 μM and a minimum concentration of 0.8 μM. Subsequently, an overnight culture of S. Typhimurium ATCC 14028, P. aeruginosa PA14, E. coli TG1, S. epidermidis, S. aureus SH1000, or S. aureus ATCC 6538 (all grown in LB) was diluted 1:100 into TSB diluted 1/20 (or TSB for S. epidermidis, S. aureus SH1000, and S. aureus ATCC 6538), whereas overnight cultures of S. liquefaciens MG44 and B. cepacia LMG1222T were diluted 1:50 into TSB diluted 1/20. P. gingivalis ATCC 33277 cultures were diluted in TSB diluted 1/20 to have a final concentration of 1 × 10^8 cells/ml. Next, 100 μl was added to each well of the microtiter plate, resulting in a total volume of 200 μl medium per well (final concentration range of compounds, 800 μM [2% DMSO or ethanol] to 0.4 μM [0.001% DMSO or ethanol]). In the next step, the pegged lid was placed on the microtiter plate and the plate was incubated for 24 h or 48 h at 25°C or 37°C without shaking. At 37°C, the plates were placed in a sealed container with wet towels on the bottom to prevent evaporation of the growth medium. Biofilms of P. gingivalis ATCC 33277 were grown anaerobically at 37°C for 72 h. During this incubation period, biofilms were formed on the surface of the pegs. After incubation, the optical density at 600 nm (OD600) for the planktonic cells in the microtiter plate was measured using a Synergy MX multimode reader (BioTek, Winooski, VT). This gives a first indication of the effect of the compounds on planktonic growth. For quantification of biofilm formation, the pegs were washed once in 200 μl PBS. The remaining attached bacteria were stained for 30 min with 200 μl 0.1% (wt/vol) crystal violet in an isopropanol-methanol-PBS solution (1:1:18, vol/vol). Excess stain was rinsed off by placing the pegs in a 96-well plate filled with 200 μl distilled water per well. After air drying of the pegs (30 min), the dye bound to the adherent biofilm was extracted with 30% glacial acetic acid (200 μl per well of a 96-well plate). The optical density at 570 nm (OD570) of each well was measured using a Synergy MX multimode reader (BioTek, Winooski, VT). The concentration of each compound needed to inhibit biofilm formation by 50% (BIC50) and the concentration of each compound needed to inhibit planktonic growth by 50% (IC50) were determined from the concentration gradient by using nonlinear curve fitting (GraphPad Prism software, version 5; GraphPad Software, Inc., La Jolla, CA). In the same assay, the effect on planktonic growth was evaluated. The activity was considered biofilm specific if the BIC50 was at least two times lower than the IC50. Data represent the means from at least 3 technical repeats with the corresponding 95% confidence intervals (provided in the supplemental material).

The subject of the next experiment is S. epidermidis. The description is as above. The class given is cell-based, Staphylococcus epidermidis. The settings on record: 37°C. The protocol: as §1
A further experiment has as its system P. aeruginosa PA14. Described as above. It is filed as cell-based, Pseudomonas aeruginosa. The procedure:
as §1

The test system of experiment [1] is S. aureus SH1000. The description is as above. It is filed as cell-based, Staphylococcus aureus. The protocol:
as §1

A further experiment concerns E. coli TG1. The description is as above. The class given is cell-based, Escherichia coli. The procedure: as §1
The test system of another experiment is C. albicans SC5314. The experiment in a line: Inhibition of C. albicans biofilms, CellTiter-Blue quantification. Conditions: C. albicans SC5314, 37°C, CTB method, read-out: BIC50 (μM) for C. albicans SC5314 (37°C). The class given is cell-based, Candida albicans. The protocol: The potential of the compounds to prevent C. albicans SC5314 biofilm formation was assessed using the CellTiter-Blue (CTB) quantification method ([75]). […]. Twofold serial dilutions of the compounds (dissolved in 100% DMSO or ethanol) in 100 μl RPMI 1640 medium per well were prepared in a round-bottom polystyrene 96-well microtiter plate (TPP; Trasadingen, Switzerland) in duplicate or triplicate with a maximum concentration of 1,600 μM and a minimum concentration of 0.8 μM. One hundred microliters of the cell suspension was added to each well of the microtiter plate, resulting in a total volume of 200 μl medium per well (final concentration range of compounds, 800 μM [2% DMSO or ethanol] to 0.4 μM [0.001% DMSO or ethanol]). After 16 h of static incubation at 37°C, the biofilms were washed and quantified by the CTB method as described previously ([73]).

Another experiment has as its system B. cepacia LMG1222T. Put plainly: Monospecies bacterial biofilm inhibition, static peg assay. The class given is cell-based, Burkholderia cepacia. The settings on record: 25°C. The procedure: as §1
Experiment [2] concerns S. Typhimurium ATCC 14028. Described as above. The class given is cell-based, Salmonella enterica serovar Typhimurium. Conditions: S. Typhimurium ATCC 14028, 25°C. The protocol: as §1
The test system of another experiment is S. aureus ATCC 6538. Put plainly: Monospecies bacterial biofilm inhibition, static peg assay (Calgary device, crystal violet; planktonic OD600). The class given is cell-based, Staphylococcus aureus. The protocol: as §1
Another experiment relates to E. coli VR50. Details: method as in PMID 23208606, PMID 19959627. Conditions: cited from earlier work.
A further experiment deals with E. coli F18. Details: method as in PMID 23208606, PMID 19959627. The settings on record: cited from earlier work.
For experiment [3], the system named is S. aureus SH1000. Details: method as in PMID 23208606, PMID 19959627. Conditions: cited from earlier work.
The mark [4] stands for this setting: Serratia liquefaciens, read-out: BIC50.
Setting [5] is: Serratia liquefaciens, read-out: IC50 (planktonic growth).
The mark [6] stands for this setting: Staphylococcus epidermidis, read-out: BIC50.
The mark [7] stands for this setting: Staphylococcus epidermidis, read-out: IC50 (planktonic growth).
Where [8] appears, read: Pseudomonas aeruginosa, PA14, P. aeruginosa PA14, 25°C, read-out: BIC50.
[9] abbreviates: Pseudomonas aeruginosa, PA14, P. aeruginosa PA14, 25°C, read-out: IC50 (planktonic growth).
The mark [10] stands for this setting: Staphylococcus aureus, SH1000, S. aureus SH1000, 37°C, read-out: BIC50.
Where [11] appears, read: Staphylococcus aureus, SH1000, S. aureus SH1000, 37°C, read-out: IC50 (planktonic growth).
Setting [12] is: Escherichia coli, TG1, E. coli TG1, 25°C, read-out: BIC50.
Setting [13] is: Escherichia coli, TG1, E. coli TG1, 25°C, read-out: IC50 (planktonic growth).
Setting [14] is: Burkholderia cepacia, read-out: BIC50.
Setting [15] is: Burkholderia cepacia, read-out: IC50 (planktonic growth).
Where [16] appears, read: Salmonella enterica, read-out: BIC50.
[17] abbreviates: Salmonella enterica, read-out: IC50 (planktonic growth).
Setting [18] is: Staphylococcus aureus, ATCC6538, read-out: BIC50 (concentration needed to inhibit biofilm formation by 50%), S. aureus ATCC 6538, 37°C.
The mark [19] stands for this setting: Staphylococcus aureus, ATCC6538, read-out: IC50 (concentration needed to inhibit planktonic growth by 50%), S. aureus ATCC 6538, 37°C, planktonic OD600.
Where [20] appears, read: read-out: IC50 (planktonic growth).

Like-named read-outs stand apart in the source and are kept apart here. A value given as a limit tells only on which side of the number the result lay.

With `Nc1ncc(-c2ccccc2)[nH]1` [5-phenyl-2-aminoimidazole], the “effect on transcription of CsgD and regulon genes csgB and adrA” value in the experiment with CsgD is listed as “reduces the transcription of CsgD”.
On to `O=c1cc(-c2ccccc2)oc2cc(O)c(O)c(O)c12` [Baicalein, reference compound], for which, in the experiment with P. aeruginosa PAO1, the “concentration at which biofilm formation is inhibited” value was 20 µM. Besides, the IC50 in the experiment on S. liquefaciens MG44 (setting [4]), in the experiment with S. liquefaciens MG44 (setting [5]), in the experiment on S. epidermidis (setting [6]), with S. epidermidis (setting [7]), with P. aeruginosa PA14 (setting [8]) and with P. aeruginosa PA14 (setting [9]) was more than 400 µM throughout. The IC50 is 77.5 µM in the experiment on S. aureus SH1000 [1] (setting [10]); more than 400 µM in the experiment on S. aureus SH1000 [1] (setting [11]); 1.2 µM in the experiment on E. coli TG1 (setting [12]); approximately 23.5 µM in the experiment with E. coli TG1 (setting [13]); 273 µM with C. albicans SC5314 (Candida albicans); 48.9 µM with B. cepacia LMG1222T (setting [14]). In addition, the IC50 (with B. cepacia LMG1222T (setting [15]); in experiment [2] (setting [16]); in [2] (setting [17]); with S. aureus ATCC 6538 (setting [18]); in the experiment on S. aureus ATCC 6538 (setting [19])) was more than 400 µM in each case.
As to `O=C(N/N=C/c1ccc([N+](=O)[O-])o1)c1ccc(O)cc1` [Nifuroxazide, reference compound], the “concentration at which biofilm formation is inhibited” value in the experiment with P. aeruginosa PAO1 is 70 µM. Further, the IC50 was more than 400 µM in the experiment with S. liquefaciens MG44 (setting [4]); more than 400 µM in the experiment on S. liquefaciens MG44 (setting [5]); 46.9 µM in the experiment on S. epidermidis (setting [6]); approximately 43.4 µM in the experiment on S. epidermidis (setting [7]); more than 400 µM with P. aeruginosa PA14 (setting [8]); more than 400 µM with P. aeruginosa PA14 (setting [9]). In addition, the IC50 with S. aureus SH1000 [1] (setting [10]) is more than 400 µM; with S. aureus SH1000 [1] (setting [11]), more than 400 µM; in the experiment on E. coli TG1 (setting [12]), 12.2 µM; in the experiment with E. coli TG1 (setting [13]), more than 400 µM; in the experiment with C. albicans SC5314 (Candida albicans), more than 400 µM; in the experiment with B. cepacia LMG1222T (setting [14]), more than 400 µM. In addition, the IC50 in the experiment with B. cepacia LMG1222T (setting [15]) is more than 400 µM; in [2] (setting [16]) it was more than 400 µM; in experiment [2] (setting [17]) it was more than 400 µM; in the experiment with S. aureus ATCC 6538 (setting [18]) it was 65.5 µM; in the experiment on S. aureus ATCC 6538 (setting [19]) it was 125 µM.
As for Tannic acid [reference compound], the “concentration at which biofilm formation is inhibited” value in the experiment with E. coli VR50, in the experiment on E. coli F18 and in the experiment on S. aureus SH1000 [3] was 20 µM in each case. Besides, the IC50 with S. liquefaciens MG44 (read-out: BIC50) is more than 400 µM; with S. liquefaciens MG44 (setting [20]), more than 400 µM; in the experiment on S. epidermidis (read-out: BIC50), more than 400 µM; with S. epidermidis (setting [20]), more than 400 µM; in the experiment with P. aeruginosa PA14 (P. aeruginosa PA14, 25°C, read-out: BIC50), 27.7 µM; in the experiment with P. aeruginosa PA14 (P. aeruginosa PA14, 25°C, read-out: IC50 (planktonic growth)), more than 400 µM. In addition, the IC50 is 115 µM with S. aureus SH1000 [1] (S. aureus SH1000, 37°C, read-out: BIC50); more than 400 µM with S. aureus SH1000 [1] (S. aureus SH1000, 37°C, read-out: IC50 (planktonic growth)); approximately 195 µM with E. coli TG1 (E. coli TG1, 25°C, read-out: BIC50); more than 400 µM in the experiment on E. coli TG1 (E. coli TG1, 25°C, read-out: IC50 (planktonic growth)); more than 400 µM with C. albicans SC5314; 1.9 µM in the experiment with B. cepacia LMG1222T (read-out: BIC50). Also, the IC50 in the experiment on B. cepacia LMG1222T (setting [20]) was more than 400 µM; in [2] (read-out: BIC50) it was 18.8 µM; in experiment [2] (setting [20]), more than 400 µM; in the experiment with S. aureus ATCC 6538 (S. aureus ATCC 6538, 37°C, planktonic OD600, read-out: IC50 (concentration needed to inhibit planktonic growth by 50%)), more than 400 µM; in the experiment on S. aureus ATCC 6538 (S. aureus ATCC 6538, 37°C, read-out: BIC50 (concentration needed to inhibit biofilm formation by 50%)) it was approximately 300 µM.
